# Patent US20220281848A1, “PYRAZOLE-SUBSTITUTED PYRROLIDINONES AS HERBICIDES” (FMC Corporation, priority 2019, published 2022)
# System: plants
# Experiment: Test D pre-emergence, other plants of Tables D1 and D3
# Assay type: in vivo
# Details: preemergent, 20 DAA
# Experimental: A formulation containing 50 g/L of the test chemical was prepared by dissolving the active ingredient in a mixture of organic solvents and emulsifier, details of which are provided in the table. This formulation was then mixed with a small, variable amount of acetone to aid dissolution, before addition of a 0.2% v/v aqueous solution of an adjuvant, as the aqueous diluent, to form an aqueous spray solution which contains a predetermined concentration of the active ingredient.
# This aqueous spray solution was then sprayed onto plants including maize and wheat that had been seed treated with a herbicide safener, after one day's cultivation (for pre-emergence) or after about 12 days' cultivation (for post-emergence). The plants were grown from seeds sown in standard soil, placed in a glasshouse under controlled conditions (at 24/18° C. or 20/16° C., day/night; 16 h light; 65% humidity). After spray application the plants were then grown in a glasshouse under the same conditions and watered twice daily. After 15 d for post-emergence and 20 DAA for pre-emergence the test was evaluated (100=total damage to plant; 0=no damage to plant).
compound,measurement,setting,value
CCn1nc([C@H]2CN(C)C(=O)[C@@H]2C(=O)Nc2cccc(F)c2F)c2cc(F)ccc21 [Compound 8],"damage to plant (100=total damage to plant; 0=no damage to plant), ABUTH",rate 15,0
same,"damage to plant (100=total damage to plant; 0=no damage to plant), ABUTH",rate 30,0
same,"damage to plant (100=total damage to plant; 0=no damage to plant), ABUTH",rate 60,0
same,"damage to plant (100=total damage to plant; 0=no damage to plant), ABUTH",rate 130,0
same,"damage to plant (100=total damage to plant; 0=no damage to plant), ABUTH",rate 250,0
same,"damage to plant (100=total damage to plant; 0=no damage to plant), ABUTH",rate 500,0
same,"damage to plant (100=total damage to plant; 0=no damage to plant), AMARE",rate 15,0
same,"damage to plant (100=total damage to plant; 0=no damage to plant), AMARE",rate 30,0
same,"damage to plant (100=total damage to plant; 0=no damage to plant), AMARE",rate 60,0
same,"damage to plant (100=total damage to plant; 0=no damage to plant), AMARE",rate 130,0
same,"damage to plant (100=total damage to plant; 0=no damage to plant), AMARE",rate 250,0
same,"damage to plant (100=total damage to plant; 0=no damage to plant), AMARE",rate 500,0
same,"damage to plant (100=total damage to plant; 0=no damage to plant), BIDPI",rate 15,0
same,"damage to plant (100=total damage to plant; 0=no damage to plant), BIDPI",rate 30,0
same,"damage to plant (100=total damage to plant; 0=no damage to plant), BIDPI",rate 60,0
same,"damage to plant (100=total damage to plant; 0=no damage to plant), BIDPI",rate 130,0
same,"damage to plant (100=total damage to plant; 0=no damage to plant), BIDPI",rate 250,0
same,"damage to plant (100=total damage to plant; 0=no damage to plant), BIDPI",rate 500,0
same,"damage to plant (100=total damage to plant; 0=no damage to plant), BRAPL",rate 15,20
same,"damage to plant (100=total damage to plant; 0=no damage to plant), BRAPL",rate 30,70
same,"damage to plant (100=total damage to plant; 0=no damage to plant), BRAPL",rate 60,70
same,"damage to plant (100=total damage to plant; 0=no damage to plant), BRAPL",rate 130,80
same,"damage to plant (100=total damage to plant; 0=no damage to plant), BRAPL",rate 250,90
same,"damage to plant (100=total damage to plant; 0=no damage to plant), BRAPL",rate 500,100
same,"damage to plant (100=total damage to plant; 0=no damage to plant), CYPES",rate 15,0
same,"damage to plant (100=total damage to plant; 0=no damage to plant), CYPES",rate 30,0
same,"damage to plant (100=total damage to plant; 0=no damage to plant), CYPES",rate 60,0
same,"damage to plant (100=total damage to plant; 0=no damage to plant), CYPES",rate 130,0
same,"damage to plant (100=total damage to plant; 0=no damage to plant), CYPES",rate 250,0
same,"damage to plant (100=total damage to plant; 0=no damage to plant), CYPES",rate 500,0
same,"damage to plant (100=total damage to plant; 0=no damage to plant), DIGSA",rate 15,10
same,"damage to plant (100=total damage to plant; 0=no damage to plant), DIGSA",rate 30,90
same,"damage to plant (100=total damage to plant; 0=no damage to plant), DIGSA",rate 60,100
same,"damage to plant (100=total damage to plant; 0=no damage to plant), DIGSA",rate 130,100
same,"damage to plant (100=total damage to plant; 0=no damage to plant), DIGSA",rate 250,100
same,"damage to plant (100=total damage to plant; 0=no damage to plant), DIGSA",rate 500,100
same,"damage to plant (100=total damage to plant; 0=no damage to plant), ECHCG",rate 15,30
same,"damage to plant (100=total damage to plant; 0=no damage to plant), ECHCG",rate 30,90
same,"damage to plant (100=total damage to plant; 0=no damage to plant), ECHCG",rate 60,90
same,"damage to plant (100=total damage to plant; 0=no damage to plant), ECHCG",rate 130,90
same,"damage to plant (100=total damage to plant; 0=no damage to plant), ECHCG",rate 250,90
same,"damage to plant (100=total damage to plant; 0=no damage to plant), ECHCG",rate 500,100
same,"damage to plant (100=total damage to plant; 0=no damage to plant), ELEIN",rate 15,0
same,"damage to plant (100=total damage to plant; 0=no damage to plant), ELEIN",rate 30,0
same,"damage to plant (100=total damage to plant; 0=no damage to plant), ELEIN",rate 60,0
same,"damage to plant (100=total damage to plant; 0=no damage to plant), ELEIN",rate 130,0
same,"damage to plant (100=total damage to plant; 0=no damage to plant), ELEIN",rate 250,0
same,"damage to plant (100=total damage to plant; 0=no damage to plant), ELEIN",rate 500,0
same,"damage to plant (100=total damage to plant; 0=no damage to plant), EPHHL",rate 15,0
same,"damage to plant (100=total damage to plant; 0=no damage to plant), EPHHL",rate 30,0
same,"damage to plant (100=total damage to plant; 0=no damage to plant), EPHHL",rate 60,0
same,"damage to plant (100=total damage to plant; 0=no damage to plant), EPHHL",rate 130,0
same,"damage to plant (100=total damage to plant; 0=no damage to plant), EPHHL",rate 250,0
same,"damage to plant (100=total damage to plant; 0=no damage to plant), EPHHL",rate 500,70
same,"damage to plant (100=total damage to plant; 0=no damage to plant), GLXMA",rate 15,0
same,"damage to plant (100=total damage to plant; 0=no damage to plant), GLXMA",rate 30,0
same,"damage to plant (100=total damage to plant; 0=no damage to plant), GLXMA",rate 60,0
same,"damage to plant (100=total damage to plant; 0=no damage to plant), GLXMA",rate 130,0
same,"damage to plant (100=total damage to plant; 0=no damage to plant), GLXMA",rate 250,0
same,"damage to plant (100=total damage to plant; 0=no damage to plant), GLXMA",rate 500,0
same,"damage to plant (100=total damage to plant; 0=no damage to plant), IPOHE",rate 15,0
same,"damage to plant (100=total damage to plant; 0=no damage to plant), IPOHE",rate 30,0
same,"damage to plant (100=total damage to plant; 0=no damage to plant), IPOHE",rate 60,0
same,"damage to plant (100=total damage to plant; 0=no damage to plant), IPOHE",rate 130,0
same,"damage to plant (100=total damage to plant; 0=no damage to plant), IPOHE",rate 250,0
same,"damage to plant (100=total damage to plant; 0=no damage to plant), IPOHE",rate 500,0
same,"damage to plant (100=total damage to plant; 0=no damage to plant), ORYSA",rate 15,0
same,"damage to plant (100=total damage to plant; 0=no damage to plant), ORYSA",rate 30,0
same,"damage to plant (100=total damage to plant; 0=no damage to plant), ORYSA",rate 60,0
same,"damage to plant (100=total damage to plant; 0=no damage to plant), ORYSA",rate 130,0
same,"damage to plant (100=total damage to plant; 0=no damage to plant), ORYSA",rate 250,0
same,"damage to plant (100=total damage to plant; 0=no damage to plant), ORYSA",rate 500,0
same,"damage to plant (100=total damage to plant; 0=no damage to plant), PANMI",rate 15,0
same,"damage to plant (100=total damage to plant; 0=no damage to plant), PANMI",rate 30,0
same,"damage to plant (100=total damage to plant; 0=no damage to plant), PANMI",rate 60,0
same,"damage to plant (100=total damage to plant; 0=no damage to plant), PANMI",rate 130,0
same,"damage to plant (100=total damage to plant; 0=no damage to plant), PANMI",rate 250,0
same,"damage to plant (100=total damage to plant; 0=no damage to plant), PANMI",rate 500,30
same,"damage to plant (100=total damage to plant; 0=no damage to plant), SETFA",rate 15,10
same,"damage to plant (100=total damage to plant; 0=no damage to plant), SETFA",rate 30,80
same,"damage to plant (100=total damage to plant; 0=no damage to plant), SETFA",rate 60,70
same,"damage to plant (100=total damage to plant; 0=no damage to plant), SETFA",rate 130,90
same,"damage to plant (100=total damage to plant; 0=no damage to plant), SETFA",rate 250,100
same,"damage to plant (100=total damage to plant; 0=no damage to plant), SETFA",rate 500,100
same,"damage to plant (100=total damage to plant; 0=no damage to plant), SIDSP",rate 15,0
same,"damage to plant (100=total damage to plant; 0=no damage to plant), SIDSP",rate 30,0
same,"damage to plant (100=total damage to plant; 0=no damage to plant), SIDSP",rate 60,0
same,"damage to plant (100=total damage to plant; 0=no damage to plant), SIDSP",rate 130,0
same,"damage to plant (100=total damage to plant; 0=no damage to plant), SIDSP",rate 250,0
same,"damage to plant (100=total damage to plant; 0=no damage to plant), SIDSP",rate 500,0
same,"damage to plant (100=total damage to plant; 0=no damage to plant), SORVU",rate 15,0
same,"damage to plant (100=total damage to plant; 0=no damage to plant), SORVU",rate 130,10
